# Results published in ChEMBL document CHEMBL1147986, “Minimum structure requirement of immunomodulatory glycolipids for predominant Th2 cytokine induction and the discovery of non-linear phytosphingosine analogs” (2007).
# Experiments:
# [1] = Induction of IL4 secretion in C57BL/6 mouse spleen cells at 100 ng/ml after 72 hrs relative to OCH; type: functional
# [2] = Induction of IFN gamma secretion in C57BL/6 mouse spleen cells at 100 ng/ml after 72 hrs relative to OCH; type: functional
Structure (SMILES),Activity [1] [%],Activity [2] [%]
CCCCCCCCCCCCCCCCCCCCCCCC(=O)N[C@@H](CO[C@H]1O[C@H](CCl)[C@H](O)[C@H](O)[C@H]1O)[C@H](O)[C@H](O)Cc1ccccc1,211,284
CCCCCCCCCCCCCCCCCCCCCCCCCC(=O)N[C@@H](CO[C@H]1O[C@H](CO)[C@H](O)[C@H](O)[C@H]1O)[C@H](O)[C@H](O)CCCCC,129,504
CCCCCCCCCCCCCCCCCCCCCCCCCCCC(=O)N[C@@H](CO[C@H]1O[C@H](CO)[C@H](O)[C@H](O)[C@H]1O)[C@H](O)[C@H](O)CCCCC,178,761
CCCCCCCCCCCCCCCCCCCCCCCCCC(=O)N[C@@H](CO[C@H]1O[C@H](CO)[C@H](O)[C@H](O)[C@H]1O)[C@H](O)[C@H](O)CCCCCCCCCCCCCC [RGI-7000],128,569
CCCCCCCCCCCCCCCCCCCCCCCC(=O)N[C@@H](CO[C@H]1O[C@H](CCl)[C@H](O)[C@H](O)[C@H]1O)[C@H](O)[C@H](O)CC1CCCC1,98,74
CCCCCCCCCCCCCCCCCCCCCCCCC(=O)N[C@@H](CO[C@H]1O[C@H](CO)[C@H](O)[C@H](O)[C@H]1O)[C@H](O)[C@@H](O)CCCCC,154,103
CCCCCCCCCCCCCCCCCCCC(=O)N[C@@H](CO[C@H]1O[C@H](CO)[C@H](O)[C@H](O)[C@H]1O)[C@H](O)[C@H](O)CCCCC,6,9
CCCCCCCCCCCCCCCCCCCCCCCC(=O)N[C@@H](CO[C@H]1O[C@H](CO)[C@H](O)[C@H](O)[C@H]1O)[C@H](O)[C@H](O)CC,102,81
CCCCCCCCCCCCCCCCCCCCCC(=O)N[C@@H](CO[C@H]1O[C@H](CO)[C@H](O)[C@H](O)[C@H]1O)[C@H](O)[C@H](O)CCCCC,51,46
CCCCCCCCCCCCCCCCCCCCCCCC(=O)N[C@@H](CO[C@H]1O[C@H](CO)[C@H](O)[C@H](O)[C@H]1O)[C@H](O)[C@H](O)CCC,105,96
CCCCCCCCCCCCCCCCCCCCCCC(=O)N[C@@H](CO[C@H]1O[C@H](CO)[C@H](O)[C@H](O)[C@H]1O)[C@H](O)[C@H](O)CCCCC,103,93
CCCCCCCCCCCCCCCCCCCCCCCC(=O)N[C@@H](CO[C@H]1O[C@H](CO)[C@H](O)[C@H](O)[C@H]1O)[C@H](O)[C@H](O)CCCC,115,112
CCCCCCCCCCCCCCCCCCCCCCCC(=O)N[C@@H](CO[C@H]1O[C@H](CO)[C@H](O)[C@H](O)[C@H]1O)[C@H](O)[C@H](O)CCCCC,100,100
